# In ChEMBL document CHEMBL1130524, “An aromatic moiety is not essential for pharmacophore binding to sigma binding sites: Synthesis of N-alkylazacycloheptane derivatives as potent sigma ligands” (Bioorg Med Chem Lett, 1997):
# Target: Sigma 2 receptor
# Test: Inhibition of [3H]-DTG binding to Sigma opioid receptor type 2
row,SMILES,Ki
1,CC1(C)C2CC[C@]1(C)CN(CCC1CCCCC1)C2,0.28 nM
2,CC1(C)C2CC[C@]1(C)CN(CCC1CCCC1)C2,0.7 nM
3,CC1(C)C2CC[C@]1(C)CN(CCC1CCCCCC1)C2,0.25 nM
4,CC1(C)C2CC[C@@]1(C)CN(CC1CCCCC1)C2,3.54 nM
5,CC1(C)C2CC[C@]1(C)CN(CC1CCCCC1)C2,3.14 nM
6,CC1(C)C2CC[C@]1(C)CN(CCC1C3CC4CC(C3)CC1C4)C2 (some centres not stated),0.77 nM
7,CC1(C)C2CC[C@]1(C)CN(CCCC1CCCCC1)C2,0.56 nM
8,CC1(C)C2CC[C@]1(C)CN(C1CCCCC1)C2,1.1 nM
9,CC1(C)C2CC[C@@]1(C)CN(CCC1CCCCC1)C2,0.23 nM
10,CC1(C)C2CC[C@]1(C)CN(CCCCC1CCCCC1)C2,6.79 nM
11,CC1(C)C2CC[C@]1(C)CN(CCC1CCCCCCC1)C2,0.33 nM
12,C=CCN1CC[C@@]2(C)c3cc(O)ccc3C[C@H]1[C@H]2C (racemic),14200 nM
